In PubChem BioAssay (NCI):
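All cell lines were grown in 96-well plates and treated with compound for 48 hours. TGI marks complete inhibition of growth.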

Tests used:
Experiment in all cases: NCI anticancer screen, dose series, 48 h
SF-295 CNS = system: SF-295 CNS
BT-549 breast = system: BT-549 breast
MALME-3M melanoma = system: MALME-3M melanoma
MDA-MB-231 breast = system: MDA-MB-231 breast
T-47D breast = system: T-47D breast
HL-60(TB) leukemia = system: HL-60(TB) leukemia
PC-3 prostate = system: PC-3 prostate
OVCAR-4 ovarian = system: OVCAR-4 ovarian
OVCAR-8 ovarian = system: OVCAR-8 ovarian
U251 CNS = system: U251 CNS
SW-620 colon = system: SW-620 colon
NCI-H23 lung = system: NCI-H23 lung
NCI-H460 lung = system: NCI-H460 lung
HCT-15 colon = system: HCT-15 colon
SK-MEL-5 melanoma = system: SK-MEL-5 melanoma
MDA-N = system: MDA-N
IGROV1 ovarian = system: IGROV1 ovarian
HCT-116 colon = system: HCT-116 colon
HT29 colon = system: HT29 colon
SK-OV-3 ovarian = system: SK-OV-3 ovarian
RXF 393 renal = system: RXF 393 renal
EKVX NSCLC = system: EKVX NSCLC
K-562 leukemia = system: K-562 leukemia
NCI/ADR-RES ovarian = system: NCI/ADR-RES ovarian
HOP-92 NSCLC = system: HOP-92 NSCLC
SR leukemia = system: SR leukemia
SN12C renal = system: SN12C renal
OVCAR-3 ovarian = system: OVCAR-3 ovarian
MDA-MB-435 = system: MDA-MB-435
HCC-2998 colon = system: HCC-2998 colon
A498 renal = system: A498 renal
LOX IMVI melanoma = system: LOX IMVI melanoma
CAKI-1 renal = system: CAKI-1 renal
HOP-62 NSCLC = system: HOP-62 NSCLC
UACC-62 melanoma = system: UACC-62 melanoma
COLO 205 colon = system: COLO 205 colon
UACC-257 melanoma = system: UACC-257 melanoma
TK-10 renal = system: TK-10 renal
SK-MEL-2 melanoma = system: SK-MEL-2 melanoma
NCI-H226 lung = system: NCI-H226 lung
SK-MEL-28 melanoma = system: SK-MEL-28 melanoma
OVCAR-5 ovarian = system: OVCAR-5 ovarian
UO-31 renal = system: UO-31 renal
CCRF-CEM leukemia = system: CCRF-CEM leukemia
MOLT-4 leukemia = system: MOLT-4 leukemia
A549 NSCLC = system: A549 NSCLC
SF-268 CNS = system: SF-268 CNS
SF-539 CNS = system: SF-539 CNS
M14 melanoma = system: M14 melanoma
DU-145 prostate = system: DU-145 prostate
SNB-75 CNS = system: SNB-75 CNS
MCF7 breast = system: MCF7 breast
HS 578T breast = system: HS 578T breast
KM12 colon = system: KM12 colon
RPMI-8226 leukemia = system: RPMI-8226 leukemia
786-0 renal = system: 786-0 renal
ACHN renal = system: ACHN renal
SNB-19 CNS = system: SNB-19 CNS

## Cc1ccc(NN=NCCCCN=NNc2ccc(C)cc2)cc1
SF-295 CNS
  TGI: > 100 µM
BT-549 breast
  TGI: > 100 µM
MALME-3M melanoma
  TGI: > 100 µM
MDA-MB-231 breast
  TGI: > 100 µM
T-47D breast
  TGI: > 100 µM
HL-60(TB) leukemia
  TGI: 30.3 µM
PC-3 prostate
  TGI: > 100 µM
OVCAR-4 ovarian
  TGI: > 100 µM
OVCAR-8 ovarian
  TGI: > 100 µM
U251 CNS
  TGI: > 100 µM
SW-620 colon
  TGI: > 100 µM
NCI-H23 lung
  TGI: 81.2 µM
NCI-H460 lung
  TGI: > 100 µM
HCT-15 colon
  TGI: > 100 µM
SK-MEL-5 melanoma
  TGI: > 100000 nM
MDA-N
  TGI: > 100 µM
IGROV1 ovarian
  TGI: > 100 µM
HCT-116 colon
  TGI: > 100 µM
HT29 colon
  TGI: > 100 µM
SK-OV-3 ovarian
  TGI: > 100 µM
RXF 393 renal
  TGI: > 100 µM
EKVX NSCLC
  TGI: > 100 µM
K-562 leukemia
  TGI: > 100 µM
NCI/ADR-RES ovarian
  TGI: > 100 µM
HOP-92 NSCLC
  TGI: > 100 µM
SR leukemia
  TGI: > 100 µM
SN12C renal
  TGI: > 100 µM
OVCAR-3 ovarian
  TGI: > 100 µM
MDA-MB-435
  TGI: > 100 µM
HCC-2998 colon
  TGI: > 100 µM
A498 renal
  TGI: > 100 µM
LOX IMVI melanoma
  TGI: > 100 µM
CAKI-1 renal
  TGI: > 100 µM
HOP-62 NSCLC
  TGI: > 100 µM
UACC-62 melanoma
  TGI: > 100 µM
COLO 205 colon
  TGI: > 100 µM
UACC-257 melanoma
  TGI: > 100 µM
TK-10 renal
  TGI: 17.9 µM
SK-MEL-2 melanoma
  TGI: > 100 µM
NCI-H226 lung
  TGI: > 100 µM
SK-MEL-28 melanoma
  TGI: > 100 µM
OVCAR-5 ovarian
  TGI: > 100 µM
UO-31 renal
  TGI: 2.1 µM
CCRF-CEM leukemia
  TGI: 98.4 µM
MOLT-4 leukemia
  TGI: > 100 µM
A549 NSCLC
  TGI: > 100 µM
SF-268 CNS
  TGI: > 100 µM
SF-539 CNS
  TGI: > 100 µM
M14 melanoma
  TGI: > 100 µM
DU-145 prostate
  TGI: > 100 µM
SNB-75 CNS
  TGI: > 100 µM
MCF7 breast
  TGI: > 100 µM
HS 578T breast
  TGI: > 100 µM

## NCCN1C(=O)c2cc(Cl)c(Cl)cc2C1(O)c1ccc(Cl)cc1 (centres undefined)
SF-295 CNS
  TGI: 3.9 µM
BT-549 breast
  TGI: 13.4 µM
MALME-3M melanoma
  TGI: 3.49 µM
MDA-MB-231 breast
  TGI: 3.75 µM
KM12 colon
  TGI: 4.17 µM
T-47D breast
  TGI: 4.55 µM
RPMI-8226 leukemia
  TGI: 5.39 µM
HL-60(TB) leukemia
  TGI: 3.44 µM
PC-3 prostate
  TGI: 19.3 µM
OVCAR-4 ovarian
  TGI: 4.24 µM
OVCAR-8 ovarian
  TGI: 3.92 µM
U251 CNS
  TGI: 3.17 µM
SW-620 colon
  TGI: 3.7 µM
NCI-H23 lung
  TGI: 6.78 µM
NCI-H460 lung
  TGI: 3.64 µM
HCT-15 colon
  TGI: 5.33 µM
SK-MEL-5 melanoma
  TGI: 2990 nM
MDA-N
  TGI: 3.47 µM
IGROV1 ovarian
  TGI: 4.89 µM
HCT-116 colon
  TGI: 3.09 µM
HT29 colon
  TGI: 3.81 µM
SK-OV-3 ovarian
  TGI: 26.3 µM
RXF 393 renal
  TGI: 3.06 µM
EKVX NSCLC
  TGI: 6.75 µM
K-562 leukemia
  TGI: 4.09 µM
NCI/ADR-RES ovarian
  TGI: 7.25 µM
HOP-92 NSCLC
  TGI: 12.5 µM
SR leukemia
  TGI: 3.96 µM
SN12C renal
  TGI: 13.4 µM
OVCAR-3 ovarian
  TGI: 4.74 µM
MDA-MB-435
  TGI: 3.13 µM
A498 renal
  TGI: 10.2 µM
LOX IMVI melanoma
  TGI: 3.28 µM
CAKI-1 renal
  TGI: 7.02 µM
HOP-62 NSCLC
  TGI: 4.21 µM
UACC-62 melanoma
  TGI: 3.25 µM
786-0 renal
  TGI: 2960 nM
COLO 205 colon
  TGI: 3.02 µM
UACC-257 melanoma
  TGI: 3.47 µM
TK-10 renal
  TGI: 3.53 µM
SK-MEL-2 melanoma
  TGI: 3.63 µM
SK-MEL-28 melanoma
  TGI: 3.21 µM
OVCAR-5 ovarian
  TGI: 12.2 µM
UO-31 renal
  TGI: 17.2 µM
ACHN renal
  TGI: 4.75 µM
SNB-19 CNS
  TGI: 7.73 µM
CCRF-CEM leukemia
  TGI: 10.1 µM
MOLT-4 leukemia
  TGI: 5.28 µM
A549 NSCLC
  TGI: 4.76 µM
SF-268 CNS
  TGI: 6.65 µM
SF-539 CNS
  TGI: 3.1 µM
M14 melanoma
  TGI: 3.23 µM
DU-145 prostate
  TGI: 6.81 µM
SNB-75 CNS
  TGI: 8.26 µM
MCF7 breast
  TGI: 3.73 µM
HS 578T breast
  TGI: 8.44 µM
